Read-outs that look alike come from different tables or passages of the source.
Assays:
[1] = test system: HS 578 T; experiment: NCI one-dose screen (SRB); type: cell-based, human; conditions: Breast cancer, 10 µM single dose
Method: (§1) The growth percentage (G%) and cell viability of the herein target compounds 6a–l, 7a,b, and 9a–c have been screened towards a full panel of 59 cancer cells at NCI’s Developmental Therapeutics Program (NCI-DTP, MD, USA)[21]. The submitted analogues were initially examined for preliminary in vitro anticancer activity using sulforhodamine B (SRB) assay at 10 µM as a single dose to evaluate cell growth and viability according to the procedure of Drug Evaluation Branch[22]^,[23].
(§2) Different types of tumours – colon, NSCLC, leukaemia, CNS, renal, breast, ovarian, melanoma, and prostate cancers – were investigated as a full panel of 59 cell lines, and the attained results are cited in Figures S1–S17 (see Supplementary Material) where the value recorded is the growth relative to that of both the negative control and zero-time number of cells in which both growth inhibition (GI%; 0–100%) and lethality (L%; 0–100%) percentages can be identified. The growth inhibition means percentages (MGI%) for the examined target analogues towards the different treated 59 cancer cells were presented in Figure 2.
(§3) The designed analogues were submitted to NCI-Chemotherapeutic Agents Repository (MD, USA) for screening on a panel of 59 cancer cell lines. All compounds were initially examined at 10 µM concentration (Single-Dose Screen), and then the most efficient analogue 6i was screened further at 0.01–100 µM (Five-Dose Screen). The screening procedures were performed according to NCI-Drug Evaluation Branch protocol using SRB protein assay, as described previously[21]^,[66]. The experimental procedures were detailed in the Supporting Information.

[2] = test system: MDA-MB-435; experiment: NCI one-dose screen (SRB); type: cell-based, human; conditions: MDA-MB-435, Melanoma; 10 µM single dose
Method: as §1, §2, §3

[3] = test system: MOLT-4; experiment: NCI one-dose screen (SRB); type: cell-based, human; conditions: MOLT-4, Leukaemia; 10 µM single dose
Method: as §1, §2, §3

[4] = test system: NCI-H226; experiment: NCI one-dose screen (SRB); type: cell-based, human; conditions: NCI-H226, NSCLC; 10 µM single dose
Method: as §1, §2, §3

[5] = test system: OVCAR-4; experiment: NCI one-dose screen (SRB); type: cell-based, human; conditions: OVCAR-4, Ovarian cancer; 10 µM single dose
Method: as §1, §2, §3

[6] = test system: MCF-7 cells; experiment: Apoptosis analysis (annexin-V/PI, flow cytometry); type: cell-based, human; conditions: MCF-7, 10 µM, 24 h; DMSO control 0.29%
Method: Figure 5. Flow cytometric analyses: cell cycle distribution analysis using PI staining method in which MCF-7 cells were treated by 6i (10 µM) and DMSO (negative control; NC) for 48 h; (A) 6i, (B) DMSO, (C) cells percentage in different phases (G0-G1, S, G2/M); apoptotic induction using annexin-V-FITC/PI staining method in which cancer cells were treated by 6i (10 µM) and DMSO (negative control; NC) for 24 h; (D) 6i, (E) DMSO, (F) histogram for induction of apoptosis.
Again, MCF-7 cells were treated with 6i (10 µM) to assess its effect on cell apoptosis. As shown in Figure 5(D,E), the fraction of cells in early apoptosis were 26.27% and 0.43%, while in late apoptosis, they were 8.90% and 0.29% for compound 6i and DMSO control, respectively. The obtained results hinted that compound 6i could induce apoptotic pathways. However, the ratio of apoptosis inferred that the anti-proliferative effect of compound 6i was largely dependent on apoptosis.
The MCF-7 cells (10^6 cells/ml) were treated with either 10 µM of 6i or DMSO (NC) for 24 h. After that, the cells were trypsinised, collected, washed, and stained with PE-Annexin-V (BioVision, K101-25) in the presence of PI[67]. The induction of apoptosis was analysed by flow cytometry using BD FACS Calibur[67].

[7] = test system: SR; conditions: Leukaemia, five-dose 0.01–100 µM
[8] = test system: SNB-75; conditions: SNB-75, CNS cancer; five-dose 0.01–100 µM
[9] = test system: LOX IMVI; conditions: Melanoma, five-dose 0.01–100 µM
[10] = test system: MDA-MB-435; conditions: MDA-MB-435, Melanoma; five-dose 0.01–100 µM
[11] = test system: OVCAR-5; conditions: OVCAR-5, Ovarian cancer; five-dose 0.01–100 µM
[12] = test system: 786-0; conditions: 786-0, Renal cancer; five-dose 0.01–100 µM
[13] = test system: K-562; experiment: cells; conditions: Homo sapiens
[14] = test system: MCF7; conditions: MCF7, Breast cancer; five-dose 0.01–100 µM
[15] = test system: HS 578 T; conditions: Breast cancer, five-dose 0.01–100 µM
[16] = test system: A549/ATCC; experiment: cells; conditions: Homo sapiens
[17] = test system: NCI-H522; experiment: cells; conditions: Homo sapiens
[18] = test system: SF-539; experiment: cells; conditions: Homo sapiens
[19] = test system: U251; experiment: cells; conditions: Homo sapiens
[20] = test system: MDA-MB-435; experiment: cells; conditions: Homo sapiens
[21] = test system: 786-0; experiment: cells; conditions: Homo sapiens
[22] = test system: ACHN; experiment: cells; conditions: Homo sapiens
[23] = test system: full NCI 59 cell panel; experiment: cells; conditions: Homo sapiens

CCOC(=O)CC[C@H](NC(=O)c1ccc(NC(=O)Cn2cnc3c(c(C)nn3-c3ccc(Br)cc3)c2=O)cc1)C(=O)OCC [Compound 6i]
GI% [1]: 75.80%
GI% [2]: 57.10%
GI% [3]: 52.51%
L% (lethality) [4]: 37.32%
GI% [5]: 66.09%
fraction of cells in late apoptosis [6]: 8.90%
TGI [7]: >100 µM
TGI [8]: 40.9 µM
TGI [9]: 20.6 µM
TGI [10]: 34.3 µM
TGI [11]: 56.3 µM
TGI [12]: >100 µM
GI50 ([13]; K562): > 100 µM
CC50 ([13]; K562, read-out: LC50): > 100 µM
TGI [14]: 16.5 µM
TGI [15]: 45.7 µM
GI50 ([16]; A549): 9.81 µM
CC50 ([16]; A549, read-out: LC50): > 100 µM
GI50 ([17]; NCI-H522): 17.1 µM
CC50 ([17]; NCI-H522, read-out: LC50): 85 µM
GI50 ([18]; SF-539): 14.8 µM
CC50 ([18]; SF-539, read-out: LC50): 73.6 µM
GI50 ([19]; U-251): 13.2 µM
CC50 ([19]; U-251, read-out: LC50): > 100 µM
GI50 ([20]; MDA-MB-435): 12.2 µM
CC50 ([20]; MDA-MB-435, read-out: LC50): 96.1 µM
GI50 ([21]; 786-0): 8.66 µM
CC50 ([21]; 786-0, read-out: LC50): > 100 µM
GI50 [22]: 15.1 µM
CC50 ([22]; read-out: LC50): 78.3 µM
GI50 ([23]; range over HOP-62, A549/ATCC, HOP-92, NCI-H23, NCI-H226, SF-268, HCT-116, OVCAR-8, LOX IMVI, DU-145, PC-3, 786-0, BT-549, MCF7): 3.93 to 9.85 µM
GI50 ([23]; range over the residual examined cell lines): 10.1 to 71 µM
CC50 ([23]; read-out: LC50, most of the examined cancer cells): > 100 µM
CC50 ([23]; read-out: LC50, range over the 23 cell lines listed in b28 as exceptions): 47 to 96.1 µM
